In one data set the test system is adult rats. The data set can be described thus: Neurogenesis in vivo, BrdU/NeuN co-staining of hippocampal slices. More on the design: species or system rat. The note with it: 6 weeks. As for the experimental part: Male adult rats were divided in three groups. The rats were treated i.p. with 20% Solutol-HS15 (BASF SE) as vehicle (control group, n=11), 1 mg/kg bodyweight piperine (piperine I group, n=14 with total dose of 5 mg/kg piperin), or 10 mg/kg bodyweight piperine (piperine II group, n=13 with total dose of 50 mg/kg) once daily for 5 consecutive days. Piperine was solved in 20% Solutol-HS15 as described in Example 7. Further, all animals received BrdU (i.p. 50 mg/kg bodyweight) twice daily during these initial 5 days. BrdU is stably incorporated by dividing cells and therefore a suitable tool for the labelling of cells that divided within an experimentally defined time-window (i.e. the time during which BrdU was administered, which in the present example corresponds to the time during which Piperine was administered (Bagley et al BMC Neurosci. 2007; 8:92). The animals were sacrificed 6 weeks after the beginning of the treatment. Brains were removed rapidly, fixed with 4% paraformaldehyd and stored in 4% paraformaldehyd for further immunohistochemical analysis. 10 μm slices of the hippocampal area were generated and stained with sheep-anti-BrdU antibodies (Abcam, 1:100) and mouse-anti-NeuN antibodies (Chemicon, 1:500). Subsequently, the slices were stained for fluorescent detection with anti-sheep-biotin plus streptavidin-Cy2 and anti-mouse-Alexa555 (Molecular Probes, Fisher). […]

The subject of the next data set is mouse SCI model. The data set can be described thus: Mouse spinal cord injury (SCI) model, Basso-Mouse-Score. The note with it: i.p. 10 mg/kg, then 20 mg/kg on two days, plus 1 mg/kg daily s.c. over 2 weeks; day 1-35. Format: in vivo. As for the experimental part: Female mice at 2 months of age were anesthetized using inhalation anesthesia (1% Halothane/30% N20/70% O2). After laminectomy at the vertebral level Th8/9, the spinal cord was dorsally transected to ˜80% with fine iridectomy scissors leaving a ventral tissue bridge intact as previously described (Demjen et al. Nat Med 2004; 10: 389-395). The animals were treated postoperatively with gentamycin (i.p., 1 mg/kg bodyweight) once a day for 7 days. Bladders were emptied manually until restoration of autonomic bladder function. In the treatment experiment, C57BL/6 wild-type mice (n=20) received i.p. piperine during the operation (10 mg/kg bodyweight) and on the two following days (20 mg/kg bodyweight, each time. Further, the mice received a daily dose of 1 mg/kg bodyweight by continuous s.c. application over 2 weeks via an osmotic minipump (Alzet). Control group (sham, n=20) was treated accordingly but received only vehicle (20% Solutol-HS15). Piperine was solved in 20% Solutol-HS15 as described in Example 7. All animal experiments were approved by the ethical authorities. As a measurement for the outcome the Basso-Mouse-Score (BMS) (Basso et al. J Neurotrauma 2006; 23: 635-659) was determined at day 1, 7, 14, 21, 28, and 35 after operation. The BMS scores a value between 0 (no movement of the hind limbs) to 9 (healthy mouse).

The subject of the next data set is SH-SY5Y neuronal cells. Nature of the data set: In vitro anti-apoptosis assay, staurosporine induced apoptosis, Caspase-Glo 3/7. In kind it is cell-based, human.

As for `O=C(/C=C/C=C/c1ccc2c(c1)OCO2)N1CCCCC1` [Piperine, (E,E)-1-[5-(1,3-benzodioxol-5-yl)-1-oxo-2,4-pentadienyl]piperidine], the “neurogenesis (NeuN/BrdU-positive cells per slice) compared to the control level” value with adult rats (1 mg/kg i.p. once daily for 5 days (total 5 mg/kg)) and in the data set on adult rats (10 mg/kg i.p. once daily for 5 days (total 50 mg/kg)) was “clearly elevated levels of neurogenesis” in each case. Further, the “outcome of experimental SCI (Basso-Mouse-Score)” value in the data set on mouse SCI model was “clearly improved the outcome”. Further, the “degree of apoptosis relative to the staurosporine control” value with SH-SY5Y neuronal cells (compound 1 μM in the presence of staurosporine 0.1 μM, SH-SY5Y) came out at 66%. In addition, in the data set on SH-SY5Y neuronal cells (piperine 100 μM to 10 μM with staurosporine 0.1 μM, 5 h), the “reduction of the staurosporine induced apoptosis” value is “significant reduction”. Besides, the “apoptotic effect by themselves” value with SH-SY5Y neuronal cells (without staurosporine) is recorded as “neither piperine nor derivatives thereof exhibited an apoptotic effect by themselves”.
